≈ marks a conversion by molar mass, not a printed value.
How the values were obtained:
[1] = test system: panel of 27 Gram-positive pathogens; assay: MIC assay, panel of Gram-positive pathogens; type: cell-based; settings: Staphylococcus aureus; range over panel of 27 Gram-positive pathogens incl. VRSA and resistant Enterococcal strains (FIG. 6); read-out: minimum inhibitory concentrations
Method: Bacterial strains and growth conditions. S. aureus strains were grown in tryptic soy broth (TSB) (BD, Franklin Lakes, N.J., USA). E. faecium and E. faecalis strains were grown in brain-heart infusion (BHI) broth (BD, Franklin Lakes, N.J., USA), and four Gram-negative species, Klebsiella pneumoniae, Acinetobacter baumannii, Pseudomonas aeruginosa, and Enterobacter aerogenes were grown in Luria Bertani (LB) broth (BD, Franklin Lakes, N.J., USA). All bacteria were grown at 37° C. at 200 r.p.m.
(§1) Minimal inhibitory concentration (MIC) assay. The MICs of antibiotics were determined by the standard micro-dilution method recommended by the Clinical and Laboratory Standards Institute. MIC assays were conducted in biological triplicate.

[2] = test system: MRSA BF4; assay: MIC assay (micro-dilution); type: cell-based, S. aureus; settings: Staphylococcus aureus; daptomycin-intermediate resistant MRSA strain BF4
Method: as §1

[3] = test system: VRSA strain VRS1 persisters; assay: Persister killing assay; type: cell-based, S. aureus; settings: linezolid and daptomycin at 100× MIC; bithionol at indicated concentrations (FIG. 1E)
Method: (§2) Persister killing assay. […] Persister cells of MRSA MW2 or VRSA VRS1 were prepared by growing cultures overnight to stationary phase at 37° C. at 200 rpm and washing three times with PBS. 1 mL of ˜1×10^8 CFU/mL MRSA persisters was added to 1 mL of PBS containing a 2-fold higher concentration of the desired concentration of antibiotics in a 96-well assay block (Corning Costar 3960). For assays with daptomycin, PBS was supplemented with 50 μg/mL CaCl2. The assay block was incubated at 37° C. with shaking at 200 rpm. At various times, 400 μl samples were removed, washed once with PBS, serially diluted and spot-plated on TSA plates. Colonies were counted after overnight incubation at 37° C. to determine the titer of live cells. These experiments were conducted in triplicate.

[4] = test system: stationary-phase MRSA MW2 persisters; assay: Persister killing assay; type: cell-based, S. aureus
Method: as §2

[5] = test system: S. aureus MW2; assay: Membrane fluidity assay (Laurdan GP); type: cell-based; settings: 1 h
Method: Membrane fluidity assay. Bacterial membrane fluidity was estimated by slightly modifying previously described methods. An overnight culture of S. aureus MW2 was diluted 1:1,000 in 25 mL TSB. The diluted culture was grown to OD600˜1.5 at 37° C. with shaking at 200 rpm, followed by 10 min incubation with 10 μM Laurdan at room temperature in the dark (Sigma-Aldrich, Cat # 40227). The stained cell culture was washed with PBS 4 times and concentrated 2 times. 100 μL of the 2-fold concentrated culture was mixed with 100 μL of phosphate buffered saline (PBS) containing twice the desired concentrations of compounds in black, clear-bottom, 96-well plates (Corning no. 3904). After 1 h incubation at room temperature in the dark, the Laurdan fluorescence intensities were measured using a spectrophotometer (SpectraMax M2, Molecular Devices) with emission wavelengths of 435 nm and 490 nm upon excitation at 350 nm. The Laurdan GP was calculated using the formula GP=(I435−I490)/(I435+I490). All experiments were conducted in biological triplicate.

Oc1c(Cl)cc(Cl)cc1Sc1cc(Cl)cc(Cl)c1O [bithionol, 6,6′-thio-bis-(2,4-dichlorophenol)]
MIC [1]: 0.5 to 2 µg/mL (≈ 1.4 to 5.62 µM)
MIC [2]: 0.5 µg/mL (≈ 1.4 µM)
activity against VRSA VRS1 persisters [3]: highly efficacious at eradicating
time to complete eradication of stationary-phase MRSA persisters ([4]; 32 μg/mL (32× MIC)): ≤ 2 h
concentration required to completely eradicate stationary-phase MRSA persisters ([4]; 5×10^7 CFU/mL MRSA MW2 persisters): 32 µg/mL
concentrations exhibiting significant killing activity against MRSA MW2 persisters ([4]; FIG. 1C): > 16 µg/mL
viability of MRSA persisters ([4]; bithionol 8 μg/mL alone (FIGS. 1C, D)): do not lead to a significant decrease in the viability
concentrations inducing a significant decrease in Laurdan GP [5]: over 8 μg/mL

From patent US20220324796A1, “ANTIBIOTIC COMPOUNDS” (The General Hospital Corporation, priority 2019, published 2022)
